Tested on: ADMP
Details: GLU to GLN substitution at position 373 (P1)

Substance: QTVTWPDMELPLPRNITEGQARGSVILTVK-Biotin [30-IP]
- mode of inhibition of the enzyme: competitive inhibitor
